Among the data in ChEMBL document CHEMBL5465560, “Selectivity Literature for EUbOPEN Chemogenomic Library” (2024) are % of control and % binding values, retold here.

The target in assay [1] is Serine/threonine-protein kinase Nek6 (Homo sapiens) (UniProt Q9HC98). The assay is described as follows: Selectivity interaction (Kinase panel (Z-LYTE Assay)) EUB0001632a NEK6. The note with it: at 10 µM.
Assay [2] has as its target Proto-oncogene tyrosine-protein kinase receptor Ret (Homo sapiens, UniProt P07949). The assay is described as follows: (§1) Selectivity interaction (Ambit KINOMEscan and KiNATiv profiling in Jurkat cells) EUB0000090b RET. It counts as cell-based. The note with it: at 1 µM.
Assay [3] deals with Proto-oncogene tyrosine-protein kinase receptor Ret (Homo sapiens), P07949 [V804M]. The assay is described as §1. It counts as cell-based. The note with it: at 1 µM.
Proto-oncogene tyrosine-protein kinase receptor Ret (Homo sapiens), P07949 [V804M], sequence (P07949 whole entry V804M): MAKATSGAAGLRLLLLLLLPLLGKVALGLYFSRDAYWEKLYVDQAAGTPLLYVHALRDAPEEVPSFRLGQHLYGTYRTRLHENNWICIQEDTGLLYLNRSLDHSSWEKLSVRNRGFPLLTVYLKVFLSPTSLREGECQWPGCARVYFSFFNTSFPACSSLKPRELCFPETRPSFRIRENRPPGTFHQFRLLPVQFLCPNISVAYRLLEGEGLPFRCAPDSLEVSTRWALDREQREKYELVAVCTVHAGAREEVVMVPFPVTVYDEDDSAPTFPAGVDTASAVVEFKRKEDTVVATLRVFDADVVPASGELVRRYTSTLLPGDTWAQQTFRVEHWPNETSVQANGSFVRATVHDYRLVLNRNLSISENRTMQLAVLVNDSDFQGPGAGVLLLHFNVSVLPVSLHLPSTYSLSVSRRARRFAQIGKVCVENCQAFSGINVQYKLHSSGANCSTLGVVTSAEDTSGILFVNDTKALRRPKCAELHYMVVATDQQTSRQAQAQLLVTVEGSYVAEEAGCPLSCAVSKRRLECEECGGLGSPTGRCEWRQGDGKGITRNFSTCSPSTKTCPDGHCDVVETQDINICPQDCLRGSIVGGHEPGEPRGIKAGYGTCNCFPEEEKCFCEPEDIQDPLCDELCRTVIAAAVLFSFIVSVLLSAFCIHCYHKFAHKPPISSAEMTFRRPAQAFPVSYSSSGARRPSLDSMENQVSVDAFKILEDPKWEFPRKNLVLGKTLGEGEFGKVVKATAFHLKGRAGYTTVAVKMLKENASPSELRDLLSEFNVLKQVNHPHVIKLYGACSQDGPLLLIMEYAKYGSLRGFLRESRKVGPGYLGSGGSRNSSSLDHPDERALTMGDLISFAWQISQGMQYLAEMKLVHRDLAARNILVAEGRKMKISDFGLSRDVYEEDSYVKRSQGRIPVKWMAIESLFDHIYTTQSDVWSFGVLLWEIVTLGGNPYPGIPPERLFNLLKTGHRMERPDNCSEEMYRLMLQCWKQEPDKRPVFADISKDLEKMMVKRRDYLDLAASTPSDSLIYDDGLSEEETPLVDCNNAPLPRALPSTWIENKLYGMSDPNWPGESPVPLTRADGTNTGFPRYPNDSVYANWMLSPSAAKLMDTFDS
Assay [4] concerns Proto-oncogene tyrosine-protein kinase receptor Ret (Homo sapiens), P07949 [V804L]. The description is as §1. Format: cell-based. Conditions: at 1 µM.
Proto-oncogene tyrosine-protein kinase receptor Ret (Homo sapiens), P07949 [V804L], sequence (P07949 whole entry V804L): as the sequence (P07949 whole entry V804M) above, with M804L counted along it
In assay [5] the test system is Proto-oncogene tyrosine-protein kinase receptor Ret (Homo sapiens), P07949 [M918T]. Described as §1. Format: cell-based. Conditions: at 1 µM.
Proto-oncogene tyrosine-protein kinase receptor Ret (Homo sapiens), P07949 [M918T], sequence (P07949 whole entry M918T): as the sequence (P07949 whole entry V804M) above, with M804V, M918T counted along it
Assay [6] deals with Serine/threonine-protein kinase 25 (Homo sapiens) (UniProt O00506). Put plainly: Selectivity interaction (Ambit KINOMEscan and KiNATiv profiling in Jurkat cells) EUB0000090b STK25. It counts as cell-based. Conditions: at 1 µM.
Serine/threonine-protein kinase 25 (Homo sapiens), sequence (O00506 whole entry, looked up): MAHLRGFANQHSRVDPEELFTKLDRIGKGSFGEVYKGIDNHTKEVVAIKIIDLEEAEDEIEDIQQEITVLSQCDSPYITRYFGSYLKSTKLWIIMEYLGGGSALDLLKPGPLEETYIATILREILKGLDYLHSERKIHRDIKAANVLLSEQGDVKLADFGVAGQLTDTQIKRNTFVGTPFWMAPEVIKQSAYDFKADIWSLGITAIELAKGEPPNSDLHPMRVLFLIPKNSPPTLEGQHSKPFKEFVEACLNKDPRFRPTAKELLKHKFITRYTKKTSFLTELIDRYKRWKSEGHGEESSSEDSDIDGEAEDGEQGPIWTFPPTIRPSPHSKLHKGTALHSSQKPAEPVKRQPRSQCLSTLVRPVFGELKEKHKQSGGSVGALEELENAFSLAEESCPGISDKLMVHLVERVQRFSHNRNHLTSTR
Assay [7] deals with T1, SNF-related serine/threonine-protein kinase (Homo sapiens) (UniProt Q9NRH2).
T1 sequence (whole entry): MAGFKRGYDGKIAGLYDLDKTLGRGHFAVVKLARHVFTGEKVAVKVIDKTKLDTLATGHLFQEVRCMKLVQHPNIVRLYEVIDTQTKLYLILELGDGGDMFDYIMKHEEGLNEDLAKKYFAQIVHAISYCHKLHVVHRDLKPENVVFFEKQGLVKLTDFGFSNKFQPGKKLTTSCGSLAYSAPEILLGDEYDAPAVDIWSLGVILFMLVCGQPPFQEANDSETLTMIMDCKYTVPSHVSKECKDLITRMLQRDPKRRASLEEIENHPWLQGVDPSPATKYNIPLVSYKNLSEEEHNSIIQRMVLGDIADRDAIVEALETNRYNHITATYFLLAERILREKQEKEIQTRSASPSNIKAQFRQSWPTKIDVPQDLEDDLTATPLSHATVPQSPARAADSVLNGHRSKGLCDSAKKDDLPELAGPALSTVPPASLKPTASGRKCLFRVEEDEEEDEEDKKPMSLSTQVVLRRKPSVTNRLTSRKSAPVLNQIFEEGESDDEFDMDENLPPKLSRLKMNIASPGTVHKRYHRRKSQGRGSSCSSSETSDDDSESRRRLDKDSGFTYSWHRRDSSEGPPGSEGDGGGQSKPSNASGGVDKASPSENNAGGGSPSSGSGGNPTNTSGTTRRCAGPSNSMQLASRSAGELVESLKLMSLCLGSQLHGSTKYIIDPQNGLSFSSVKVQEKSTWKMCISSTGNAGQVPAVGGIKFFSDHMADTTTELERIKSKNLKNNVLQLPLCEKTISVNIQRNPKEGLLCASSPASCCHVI
The assay is described as follows: Selectivity interaction (KinomeScan (DiscoverX)) EUB0000229b SNRK. The note with it: at 10 µM.

Assay [8] has as its target Insulin receptor-related protein (Homo sapiens) (UniProt P14616). Put plainly: Selectivity interaction (KinomeScan (DiscoverX)) EUB0000655a INSRR. Conditions: at 10 µM.
Assay [9] addresses T2, Phosphatidylinositol 5-phosphate 4-kinase type-2 beta (Homo sapiens) (UniProt P78356).
T2 sequence (whole entry): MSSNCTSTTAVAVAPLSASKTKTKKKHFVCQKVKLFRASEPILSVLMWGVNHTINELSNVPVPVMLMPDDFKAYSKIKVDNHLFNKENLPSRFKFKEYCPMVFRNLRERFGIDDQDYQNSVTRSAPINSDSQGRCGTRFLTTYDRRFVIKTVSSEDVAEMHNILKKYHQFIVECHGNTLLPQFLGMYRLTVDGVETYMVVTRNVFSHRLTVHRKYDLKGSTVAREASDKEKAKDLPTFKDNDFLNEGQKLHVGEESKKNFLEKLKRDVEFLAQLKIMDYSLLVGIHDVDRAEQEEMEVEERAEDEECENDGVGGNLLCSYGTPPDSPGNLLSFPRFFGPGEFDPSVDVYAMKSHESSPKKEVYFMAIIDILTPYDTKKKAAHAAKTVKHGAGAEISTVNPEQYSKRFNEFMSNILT
The assay is described as follows: Selectivity interaction (KinomeScan (DiscoverX)) EUB0000655a PIP4K2B. Conditions: at 10 µM.

Assay [10] has as its target T1, SNF-related serine/threonine-protein kinase (Homo sapiens). The assay is described as follows: Selectivity interaction (KinomeScan (DiscoverX)) EUB0001079a SNRK. Conditions: at 1 µM.
Assay [11] can be described thus: Selectivity interaction (KinomeScan (DiscoverX)) EUB0001619a CDK2H. The note with it: at 1 µM.
For the next assay, the target named is Focal adhesion kinase 1 (Homo sapiens, UniProt Q05397). The assay is described as follows: Selectivity interaction (KinomeScan (DiscoverX)) EUB0000092b PTK2. Conditions: at 10 µM.
Assay [12] has as its target T3, Cytoplasmic tyrosine-protein kinase BMX (Homo sapiens) (UniProt P51813).
T3 sequence (whole entry): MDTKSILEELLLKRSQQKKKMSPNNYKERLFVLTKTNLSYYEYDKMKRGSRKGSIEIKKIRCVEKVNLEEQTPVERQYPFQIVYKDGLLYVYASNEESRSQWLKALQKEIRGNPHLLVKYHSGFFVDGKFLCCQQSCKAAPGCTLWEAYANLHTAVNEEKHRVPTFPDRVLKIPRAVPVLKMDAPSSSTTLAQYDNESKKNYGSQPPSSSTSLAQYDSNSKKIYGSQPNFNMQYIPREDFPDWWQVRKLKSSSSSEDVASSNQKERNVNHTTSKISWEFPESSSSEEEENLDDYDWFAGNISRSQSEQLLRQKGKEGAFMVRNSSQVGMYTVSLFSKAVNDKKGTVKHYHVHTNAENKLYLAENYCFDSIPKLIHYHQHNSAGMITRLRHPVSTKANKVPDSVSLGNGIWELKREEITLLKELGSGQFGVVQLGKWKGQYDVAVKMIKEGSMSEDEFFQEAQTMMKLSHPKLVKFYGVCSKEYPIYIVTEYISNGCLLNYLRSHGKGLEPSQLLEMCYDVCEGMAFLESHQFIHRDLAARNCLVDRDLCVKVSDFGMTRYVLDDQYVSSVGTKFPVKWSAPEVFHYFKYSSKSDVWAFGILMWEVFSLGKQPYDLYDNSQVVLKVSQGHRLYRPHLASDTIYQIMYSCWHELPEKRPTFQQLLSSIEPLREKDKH
The assay is described as follows: Selectivity interaction (KinomeScan (DiscoverX)) EUB0000092b BMX. The note with it: at 10 µM.

Assay [13] concerns the target Activin receptor type-1-like (Homo sapiens) (UniProt P37023). Put plainly: Selectivity interaction (KinomeScan (DiscoverX)) EUB0000618a ACVRL1. Conditions: at 10 µM.
Assay [14] deals with Serine/threonine-protein kinase SIK1 (Homo sapiens) (UniProt P57059). Put plainly: Selectivity interaction (KinomeScan (DiscoverX)) EUB0000618a SIK1. Conditions: at 10 µM.
Serine/threonine-protein kinase SIK1 (Homo sapiens), sequence (P57059 whole entry): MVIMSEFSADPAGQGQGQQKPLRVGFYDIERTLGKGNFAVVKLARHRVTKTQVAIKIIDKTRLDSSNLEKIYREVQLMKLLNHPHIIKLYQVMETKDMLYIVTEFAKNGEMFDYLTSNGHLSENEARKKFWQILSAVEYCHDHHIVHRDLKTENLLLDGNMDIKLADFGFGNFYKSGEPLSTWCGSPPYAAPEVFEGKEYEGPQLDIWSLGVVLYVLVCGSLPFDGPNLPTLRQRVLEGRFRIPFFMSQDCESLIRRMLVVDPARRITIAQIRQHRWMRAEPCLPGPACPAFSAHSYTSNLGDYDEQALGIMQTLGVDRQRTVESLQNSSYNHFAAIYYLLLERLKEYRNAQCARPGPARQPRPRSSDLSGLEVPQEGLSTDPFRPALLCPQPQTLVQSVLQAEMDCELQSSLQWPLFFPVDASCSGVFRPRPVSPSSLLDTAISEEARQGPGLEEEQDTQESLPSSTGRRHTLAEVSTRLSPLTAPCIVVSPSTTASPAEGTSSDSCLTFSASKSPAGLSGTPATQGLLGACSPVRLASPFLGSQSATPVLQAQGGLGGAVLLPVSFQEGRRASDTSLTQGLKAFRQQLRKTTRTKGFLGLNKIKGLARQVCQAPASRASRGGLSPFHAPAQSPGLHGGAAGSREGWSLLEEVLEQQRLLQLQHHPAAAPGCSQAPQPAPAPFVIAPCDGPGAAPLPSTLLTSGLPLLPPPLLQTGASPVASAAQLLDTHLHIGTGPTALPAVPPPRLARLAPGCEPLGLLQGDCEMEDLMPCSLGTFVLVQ

Proto-oncogene tyrosine-protein kinase receptor Ret, sequence (P07949 whole entry): as the sequence (P07949 whole entry V804M) above, with M804V counted along it
Activin receptor type-1-like (Homo sapiens), sequence (P37023 whole entry): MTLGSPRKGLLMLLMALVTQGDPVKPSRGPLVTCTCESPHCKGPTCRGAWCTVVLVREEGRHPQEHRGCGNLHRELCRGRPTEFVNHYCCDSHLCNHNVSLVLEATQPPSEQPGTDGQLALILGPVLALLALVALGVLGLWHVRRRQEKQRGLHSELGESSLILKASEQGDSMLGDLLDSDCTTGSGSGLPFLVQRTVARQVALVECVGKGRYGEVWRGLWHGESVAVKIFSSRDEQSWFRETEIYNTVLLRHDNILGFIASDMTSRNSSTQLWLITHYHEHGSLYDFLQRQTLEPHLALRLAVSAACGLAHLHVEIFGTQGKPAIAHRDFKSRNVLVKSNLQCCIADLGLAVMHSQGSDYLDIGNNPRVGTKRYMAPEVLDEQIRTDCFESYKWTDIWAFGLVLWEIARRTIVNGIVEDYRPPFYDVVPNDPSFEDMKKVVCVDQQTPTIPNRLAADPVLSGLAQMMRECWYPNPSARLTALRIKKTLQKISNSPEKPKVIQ
Serine/threonine-protein kinase Nek6 (Homo sapiens), sequence (Q9HC98 whole entry): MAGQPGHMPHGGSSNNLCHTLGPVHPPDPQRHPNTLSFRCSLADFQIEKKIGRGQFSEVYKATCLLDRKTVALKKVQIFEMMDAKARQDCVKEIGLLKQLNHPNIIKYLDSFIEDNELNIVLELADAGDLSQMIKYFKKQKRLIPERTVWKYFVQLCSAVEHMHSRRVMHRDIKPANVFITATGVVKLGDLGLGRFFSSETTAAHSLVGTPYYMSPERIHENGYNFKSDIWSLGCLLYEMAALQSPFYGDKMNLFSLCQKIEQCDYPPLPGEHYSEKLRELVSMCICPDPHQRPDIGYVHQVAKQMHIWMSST
Insulin receptor-related protein (Homo sapiens), sequence (P14616 27-742 limits assumed): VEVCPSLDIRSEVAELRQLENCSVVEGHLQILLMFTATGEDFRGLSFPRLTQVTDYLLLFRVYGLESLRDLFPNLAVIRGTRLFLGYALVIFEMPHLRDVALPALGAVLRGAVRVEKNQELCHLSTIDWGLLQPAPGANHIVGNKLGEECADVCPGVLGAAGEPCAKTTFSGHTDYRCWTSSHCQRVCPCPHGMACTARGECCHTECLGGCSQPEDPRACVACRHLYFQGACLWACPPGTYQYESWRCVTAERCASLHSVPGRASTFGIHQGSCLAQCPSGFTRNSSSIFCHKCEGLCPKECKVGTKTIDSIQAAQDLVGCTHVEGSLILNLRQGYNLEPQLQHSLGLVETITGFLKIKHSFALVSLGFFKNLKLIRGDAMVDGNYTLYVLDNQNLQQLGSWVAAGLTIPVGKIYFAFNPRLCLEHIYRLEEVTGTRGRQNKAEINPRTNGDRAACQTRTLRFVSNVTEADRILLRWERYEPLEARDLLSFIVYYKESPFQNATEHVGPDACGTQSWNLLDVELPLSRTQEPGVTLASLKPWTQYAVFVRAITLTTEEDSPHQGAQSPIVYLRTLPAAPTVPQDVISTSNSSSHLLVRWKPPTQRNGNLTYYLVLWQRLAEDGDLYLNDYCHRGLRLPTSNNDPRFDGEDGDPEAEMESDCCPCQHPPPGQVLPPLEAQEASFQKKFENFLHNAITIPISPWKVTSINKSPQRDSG
Insulin receptor-related protein (Homo sapiens), sequence (P14616 747-1297 limits assumed): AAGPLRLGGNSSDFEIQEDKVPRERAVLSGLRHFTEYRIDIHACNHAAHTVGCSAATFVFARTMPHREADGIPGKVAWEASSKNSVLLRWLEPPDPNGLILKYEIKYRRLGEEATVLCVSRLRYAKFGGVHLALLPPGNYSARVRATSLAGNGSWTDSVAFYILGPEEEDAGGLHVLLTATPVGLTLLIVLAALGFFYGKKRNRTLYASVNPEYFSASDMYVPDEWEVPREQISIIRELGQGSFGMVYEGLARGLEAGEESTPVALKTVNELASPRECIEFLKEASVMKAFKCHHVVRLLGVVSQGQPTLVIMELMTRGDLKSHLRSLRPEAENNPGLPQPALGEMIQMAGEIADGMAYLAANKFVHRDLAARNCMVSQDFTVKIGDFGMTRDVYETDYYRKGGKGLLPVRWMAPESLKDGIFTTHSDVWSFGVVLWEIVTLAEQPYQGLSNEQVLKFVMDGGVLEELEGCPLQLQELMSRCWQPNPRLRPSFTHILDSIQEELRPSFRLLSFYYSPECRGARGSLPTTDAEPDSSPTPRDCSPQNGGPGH

The compound `Cn1cc(-n2cnc3c(NCc4nc5cc(Cl)c(Cl)cc5[nH]4)nc(N4CCOCC4)nc32)cn1` came in with a % of control in assay [1] of 3.78%.

Turning to `CN(C)C/C=C/C(=O)Nc1ccc(C(=O)N2CCCC(Nc3ncc(Cl)c(-c4c[nH]c5ccccc45)n3)C2)cc1` (stereo not given), the % of control in assay [2] is 90%; in assay [3], 89%; in assay [4], 71%; in assay [5] it was 68%; in assay [6], 77%.

In [7], `COc1cc(N(C)c2ccnc3ccc(C(F)(F)F)cc23)cc(OC)c1OC` displayed a % binding of 53%.

With `CN(C)CCOc1ccc(-c2nc(-c3ccncc3)c(-c3ccc4c(c3)CC/C4=N\O)[nH]2)cc1`, the values for the % of control in [8] and in [9] were 100% and 94%, respectively.

`Nc1cnc(N2CCc3cc(S(=O)(=O)Nc4c(F)cc(Cl)cc4F)cc(N4CCCC4=O)c32)nc1` [TP-020n] gave a % of control in [10] of 100%.

`N#Cc1cccc(-c2c[nH]c3ncnc(N4CCOCC4)c23)c1` registered a % of control in [11] of 100%.

Regarding `CCC(=O)N1CCN(c2ccc(-n3c(=O)ccc4cnc5ccc(-c6cnc7ccccc7c6)cc5c43)cc2C(F)(F)F)CC1`, the figures for the % of control (on Focal adhesion kinase 1; in assay [12]) were 14% and 59%, respectively.

In the case of `O[C@H]1CC[C@H](Nc2ncc3nc(Nc4c(F)cc(F)cc4F)n([C@H]4CCOC4)c3n2)CC1`, the % of control was 72% in assay [13] and 100% in [14].
